Like-named read-outs stand apart in the source and are kept apart here.
Assays:
ToxA-B3 [1] = biological target: T1, ToxA-B3 (Clostridioides difficile, UniProt P16154); settings: glycan 160 nM to 100 μM
T1 construct: gene tcdA

ToxB-B2 [2] = biological target: T2, ToxB-B2 (Clostridioides difficile, UniProt P18177); settings: glycan 160 nM to 100 μM
T2 construct: gene tcdB

ToxB-GT [3] = biological target: T3, ToxB-GT (Clostridioides difficile, UniProt P18177); settings: glycan 160 nM to 100 μM
T3 construct: gene tcdB

ToxA-B1 [4] = biological target: T4, ToxA-B1 (Clostridioides difficile, UniProt P16154); settings: glycan 160 nM to 100 μM
T4 construct: gene tcdA

ToxA-B1 [5] = biological target: T4, ToxA-B1; test: biochemical
ToxA-B3 [6] = biological target: T1, ToxA-B3; test: biochemical
ToxB-B2 [7] = biological target: T2, ToxB-B2; test: biochemical
ToxB-GT [8] = biological target: T3, ToxB-GT; test: biochemical
[9] = read-out: Protein binding (KD)^a / ToxA-B3
[10] = read-out: Protein binding (KD)^a / ToxB-B2
[11] = read-out: Protein binding (KD)^a / ToxA-B1

Compound	Kd (ToxA-B3 [1]; [9])	Kd (ToxB-B2 [2]; [10])	Kd (ToxB-GT [3])	Kd (ToxA-B1 [4]; [11])	also measured
C[C@@H]1O[C@@H](O[C@H]2[C@H](O[C@H]3[C@H](O)[C@@H](O)C(O)O[C@@H]3CO)O[C@H](CO)[C@H](O)[C@@H]2O[C@H]2O[C@H](CO)[C@H](O)[C@H](O)[C@H]2O)[C@@H](O)[C@H](O)[C@@H]1O (some centres unmarked) [Blood group B]	14.4 ± 3.2 µM	42.9 ± 59.1 µM	> 100 µM	11.4 ± 1.08 µM	–
CC(=O)N[C@H]1[C@H](O[C@H]2[C@@H](O)[C@@H](CO)OC(O)[C@@H]2O)O[C@H](CO)[C@@H](O[C@@H]2O[C@@H](C)[C@@H](O)[C@@H](O)[C@@H]2O)[C@@H]1O[C@@H]1O[C@H](CO)[C@H](O)[C@H](O)[C@H]1O (some centres unmarked) [Lewis A]	1.65 ± 0.62 µM	0.579 ± 0.037 µM	> 100 µM	3.38 ± 0.95 µM	–
CC(=O)N[C@H]1[C@H](O[C@H]2[C@@H](O)[C@@H](CO)OC(O)[C@@H]2O)O[C@H](CO)[C@@H](O[C@@H]2O[C@@H](C)[C@@H](O)[C@@H](O)[C@@H]2O)[C@@H]1O[C@@H]1O[C@H](CO)[C@H](O)[C@H](O)[C@H]1O[C@@H]1O[C@@H](C)[C@@H](O)[C@@H](O)[C@@H]1O (some centres unmarked) [Lewis B]	–	0.395 ± 0.029 µM	> 100 µM	–	–
CC(=O)N[C@H]1[C@H](O[C@H]2[C@@H](O)[C@@H](CO)OC(O)[C@@H]2O)O[C@H](CO)[C@@H](O[C@@H]2O[C@H](CO)[C@H](O)[C@H](O)[C@H]2O)[C@@H]1O[C@@H]1O[C@@H](C)[C@@H](O)[C@@H](O)[C@@H]1O (some centres unmarked) [Lewis X]	16.5 ± 2.8 µM	0.501 ± 0.308 µM	> 100 µM	18.9 ± 5.58 µM	–
CO[C@H]1O[C@H](CO)[C@@H](O)[C@H](O)[C@@H]1O [α-Methyl-mannose]	–	–	–	–	Kd (ToxA-B1 [5]): > 100 µM; Kd (ToxA-B3 [6]): > 100 µM; Kd (ToxB-B2 [7]): 0.315 ± 0.103 µM; Kd (ToxB-GT [8]): > 100 µM
Blood group A	0.0614 ± 0.0296 µM	0.0291 ± 0.0075 µM	> 100 µM	1.53 ± 0.6 µM	–
Blood group H	–	0.428 ± 0.008 µM	> 100 µM	1.22 ± 0.49 µM	Kd (ToxA-B3 [1]): > 100 µM
Lewis Y	55.5 ± 28.8 µM	8 ± 0.74 µM	> 100 µM	12.7 ± 2.47 µM	–
Man5	–	–	> 100 µM	–	Kd (ToxA-B3 [1]): > 100 µM; Kd (ToxB-B2 [2]): > 100 µM; Kd (ToxA-B1 [4]): > 100 µM
Sialyl-Lewis A	72.1 ± 31.8 µM	2.39 ± 0.68 µM	> 100 µM	71.8 ± 27.1 µM	–
